# Patent US5834452A, “1- or 6-hydroxylated steroids” (Roussel Uclaf, priority 1996, dated 1998)
# How the values were obtained:
# [1] = molecular target: T1, Human glucocorticoid receptor (HGR) (Homo sapiens, UniProt P04150); assay: Relative bond affinity (RBA), recombinant human glucocorticoid receptor, charcoal dextran technique; format: binding; details: 24 h at 0° C.; Dexamethasone = 100
# T1 construct: made in house; host or cells: SF9 insect cells (baculovirus), lysate supernatant
# T1 sequence (P04150 1-777): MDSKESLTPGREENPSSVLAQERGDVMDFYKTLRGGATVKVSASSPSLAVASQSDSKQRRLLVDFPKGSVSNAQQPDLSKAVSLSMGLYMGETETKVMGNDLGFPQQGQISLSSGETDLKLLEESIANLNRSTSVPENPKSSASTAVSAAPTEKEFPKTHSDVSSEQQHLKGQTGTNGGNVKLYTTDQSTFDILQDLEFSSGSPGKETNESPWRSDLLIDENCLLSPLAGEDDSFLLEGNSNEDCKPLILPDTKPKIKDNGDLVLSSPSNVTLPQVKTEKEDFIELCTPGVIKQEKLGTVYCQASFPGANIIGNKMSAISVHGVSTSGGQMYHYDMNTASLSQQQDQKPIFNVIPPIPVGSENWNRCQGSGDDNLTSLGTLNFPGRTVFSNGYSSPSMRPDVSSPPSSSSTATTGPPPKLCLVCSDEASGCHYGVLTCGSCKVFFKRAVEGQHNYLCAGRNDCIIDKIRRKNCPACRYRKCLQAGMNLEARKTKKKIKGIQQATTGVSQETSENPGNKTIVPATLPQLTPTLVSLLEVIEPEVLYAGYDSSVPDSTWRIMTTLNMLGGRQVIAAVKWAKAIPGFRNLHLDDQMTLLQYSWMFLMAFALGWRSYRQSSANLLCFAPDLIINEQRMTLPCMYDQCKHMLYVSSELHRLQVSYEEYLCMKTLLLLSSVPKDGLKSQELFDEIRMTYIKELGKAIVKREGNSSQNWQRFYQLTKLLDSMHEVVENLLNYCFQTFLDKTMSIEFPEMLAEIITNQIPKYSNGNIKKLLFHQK
# Text: (§1) The human recombinant receptor (HGR, HPR, HAR, HMR, HER) was used.
# Human glucocorticoid receptor (HGR):
# A supernatant of SF9 cells containing the recombinant human glucocorticoid receptor was obtained by the process described above for the progestogen receptor using the cDNA fragment described by Hollenberg et al (Nature, (1985), Vol. 318 No. 19/26 635) containing the region coding for the human glucocorticoid receptor. The cells obtained were lysed in the lysis buffer (2).
# The supernatant was incubated at 0° C. for 24 hours with a constant concentration (T) of tritiated 11β, 17β-dihydroxy-6,21-dimethyl-[…] the presence of increasing concentrations of either unlabelled dexamethasone (0-1000×10^-9 M), or the unlabelled product to be tested (1 to 25000×10^-9 M). The concentration of bound tritiated 11β, 17β-dihydroxy-6,21-dimethyl-Δ^1,4,6 -pregnatriene-20-yn-3-one (B) was then measured in each incubate using the charcoal dextran adsorption technique. […]
# (§2) The following two curves were drawn: the percentage of bound tritiated hormone B/BO as a function of the logarithm of the concentration of unlabelled reference hormone or as a function of the logarithm of the concentration of unlabelled test product. The straight line of the following equation was determined: […]
# (§3) The relative bond affinity (RBA) of the test product was determined by the equation: […]
# [2] = molecular target: T2, Human androgen receptor (HAR) (Homo sapiens, UniProt P10275); assay: Relative bond affinity (RBA), recombinant human androgen receptor, charcoal dextran technique; format: binding; details: 24 h at 0° C., Testosterone = 100
# T2 construct: made in house; host or cells: SF9 insect cells (baculovirus), lysate supernatant
# T2 sequence (P10275 1-920): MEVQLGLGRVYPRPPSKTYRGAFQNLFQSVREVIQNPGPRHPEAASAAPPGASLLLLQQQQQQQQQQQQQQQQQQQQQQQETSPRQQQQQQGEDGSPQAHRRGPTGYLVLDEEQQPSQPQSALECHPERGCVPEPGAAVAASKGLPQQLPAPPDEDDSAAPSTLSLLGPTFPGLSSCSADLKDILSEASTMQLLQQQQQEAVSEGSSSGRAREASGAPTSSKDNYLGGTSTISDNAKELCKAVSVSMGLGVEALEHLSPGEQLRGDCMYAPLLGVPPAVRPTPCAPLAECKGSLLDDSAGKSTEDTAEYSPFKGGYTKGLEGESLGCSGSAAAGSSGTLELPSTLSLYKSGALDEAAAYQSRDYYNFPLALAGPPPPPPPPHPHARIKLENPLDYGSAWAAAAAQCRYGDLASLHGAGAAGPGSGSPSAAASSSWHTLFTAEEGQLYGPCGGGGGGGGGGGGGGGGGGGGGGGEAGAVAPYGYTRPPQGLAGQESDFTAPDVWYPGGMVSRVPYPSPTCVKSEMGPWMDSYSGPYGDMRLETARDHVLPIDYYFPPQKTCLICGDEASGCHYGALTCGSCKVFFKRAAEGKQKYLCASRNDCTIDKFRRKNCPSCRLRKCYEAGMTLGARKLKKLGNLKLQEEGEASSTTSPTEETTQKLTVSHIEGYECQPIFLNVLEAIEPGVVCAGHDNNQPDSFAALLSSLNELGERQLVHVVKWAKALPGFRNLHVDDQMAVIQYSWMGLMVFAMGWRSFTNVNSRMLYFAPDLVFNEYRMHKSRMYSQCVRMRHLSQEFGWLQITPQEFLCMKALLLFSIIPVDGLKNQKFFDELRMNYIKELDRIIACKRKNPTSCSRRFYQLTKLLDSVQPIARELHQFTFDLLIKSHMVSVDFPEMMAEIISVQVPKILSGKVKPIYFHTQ
# Description: as §1
# Human androgen receptor (HAR)
# A supernatant of SF9 cells containing the recombinant human androgen receptor was obtained by the process described above for the progestogen receptor using the cDNA fragment containing the region coding for the human androgen receptor. The cells obtained were lysed in the lysis buffer (3). The supernatant was incubated at 0° C. for an incubation time of 24 hours with a constant concentration (T) of tritiated testosterone in the presence of increasing concentrations of either unlabelled testosterone (0 to 1000×10^-9 M), or the unlabelled product to be tested (1 to 25000×10^-9 M). The concentration of bound tritiated testosterone (B) was then measured in each incubate using the charcoal dextran adsorption technique.
# Calculation of the relative bond affinity (RBA).
# as §2, §3
compound,measurement,setting,value
"C[C@H](O)C(=O)[C@@]1(C)CC[C@H]2[C@@H]3C[C@@H](O)C4=CC(=O)CCC4=C3CC[C@@]21C [Product B, [6β, 17β-(S)]-6-hydroxy-17-(2-hydroxy-1-oxopropyl)-17-methyl-Δ^4,9-estradiene-3-one]","RBA, Human glucocorticoid receptor",[1],no or negligible RBA's
same,"RBA, Human androgen receptor",[2],0
same,"RBA, Human androgen receptor",[2]; listed as product B,no or negligible RBA's
